Laboratory results reported in US8802678B2, “Carbonylated (aza) cyclohexanes as dopamine D3 receptor ligands” (Bioprojet, priority 2006, dated 2014).

SMILES | melting point
Cc1ccc(N2CCN(CC[C@H]3CC[C@H](NC(=O)C4=CCCC4)CC3)CC2)cc1C [Example 507, Cyclopent-1-enecarboxylic acid (4-{2-[4-(3,4-dimethylphenyl)-piperazin-1-yl]ethyl}cyclohexyl) amide] | 201 °C
CCOCC(=O)N[C@H]1CC[C@H](CCN2CCN(c3ccc(C)c(C)c3)CC2)CC1 [Example 508, N-(4-{2-[4-(3,4-Dimethylphenyl)piperazin-1-yl]ethyl}cyclohexyl)-2-ethoxyacetamide] | 122 °C
Cc1ccc(N2CCN(CC[C@H]3CC[C@H](NC(=O)CC(F)(F)F)CC3)CC2)cc1C [Example 509, N-(4-{2-[4-(3,4-Dimethylphenyl)piperazin-1-yl]ethyl}cyclohexyl)-3,3,3-trifluoropropanamide] | 199 °C
N#Cc1cccc(N2CCN(CC[C@H]3CC[C@H](NC(=O)C4=CCCC4)CC3)CC2)c1 [Example 512, Cyclopent-1-enecarboxylic acid (4-{2-[4-(3-cyanophenyl)-piperazin-1-yl]ethyl}cyclohexyl) amide] | 191 °C
CCOCC(=O)N[C@H]1CC[C@H](CCN2CCN(c3cc(C(F)(F)F)ccc3F)CC2)CC1 [Example 514, 2-Ethoxy-N-(4-{2-[4-(2-fluoro-5-trifluoromethylphenyl)piperazin-1-yl]ethyl}cyclohexyl)acetamide] | 128 °C
CCOCC(=O)N[C@H]1CC[C@H](CCN2CCN(c3ccc(Cl)cc3)CC2)CC1 [Example 515, N-(4-{2-[4-(4-Chloro-phenyl)piperazin-1-yl]ethyl}-cyclohexyl)-2-ethoxyacetamide] | 154 °C
CCCOCC(=O)N[C@H]1CC[C@H](CCN2CCN(c3cccc(C(F)(F)F)c3F)CC2)CC1 [Example 516, N-(4-{2-[4-(2-Fluoro-3-trifluoromethylphenyl)piperazin-1-yl]ethyl}cyclohexyl)-2-propoxyacetamide] | 102 °C
O=C(N[C@H]1CC[C@H](CCN2CCN(c3ccc(Cl)cc3F)CC2)CC1)C1=CCCC1 [Example 517, Cyclopent-1-enecarboxylic acid (4-{2-[4-(4-chloro-2-fluorophenyl)piperazin-1-yl]ethyl}cyclohexyl) amide] | 216 °C
Cc1ccc(N2CCN(CC[C@H]3CC[C@H](NC(=O)C4=CCCC4)CC3)CC2)c(F)c1 [Example 518, Cyclopent-1-enecarboxylic acid (4-{2-[4-(2-fluoro-4-methylphenyl)piperazin-1-yl]ethyl}cyclohexyl) amide] | 202 °C
N#CCC(=O)N[C@H]1CC[C@H](CCN2CCN(c3ccc(Cl)c(Cl)c3F)CC2)CC1 [Example 519, 2-Cyano-N-(4-{2-[4-(3,4-dichloro-2-fluorophenyl)piperazin-1-yl]ethyl}cyclohexyl)acetamide] | 237 °C
CCOCC(=O)N[C@H]1CC[C@H](CCN2CCN(c3cc(Cl)ccc3Cl)CC2)CC1 [Example 521, N-(4-{2-[4-(2,5-Dichlorophenyl)-piperazin-1-yl]ethyl}cyclohexyl)-2-ethoxyacetamide] | 128 °C
O=C(N[C@H]1CC[C@H](CCN2CCN(c3cc(F)c(F)cc3F)CC2)CC1)C1=CCCC1 [Example 523, Cyclopent-1-enecarboxylic acid (4-{2-[4-(2,4,5-trifluorophenyl)piperazin-1-yl]ethyl}cyclohexyl) amide] | 199 °C
O=C(N[C@H]1CC[C@H](CCN2CCN(c3cc(Cl)ccc3F)CC2)CC1)C1=CCCC1 [Example 525, Cyclopent-1-enecarboxylic acid (4-{2-[4-(5-chloro-2-fluorophenyl)piperazin-1-yl]ethyl}cyclohexyl) amide] | 198 °C
O=C(N[C@H]1CC[C@H](CCN2CCN(c3ccc(F)cc3F)CC2)CC1)C1=COCC1 [Example 527, 4,5-Dihydrofuran-3-carboxylic acid (4-{2-[4-(2,4-difluorophenyl)piperazin-1-yl]ethyl}cyclohexyl) amide] | 192 °C
N#CCC(=O)N[C@H]1CC[C@H](CCN2CCN(c3cc(Cl)cc(C(F)(F)F)c3)CC2)CC1 [Example 528, N-(4-{2-[4-(3-Chloro-5-trifluoromethylphenyl)piperazin-1-yl]ethyl}cyclohexyl)-2-cyanoacetamide] | 172 °C
CCOC(=O)CN1CCC(CCN2CCN(c3cccc(C)c3C)CC2)CC1 [Example 533, (4-{2-[4-(2,3-Dimethylphenyl)piperazin-1-yl]ethyl}piperidin-1-yl)acetic acid ethyl ester] | 82 °C
Cc1ccc(F)c(N2CCN(CC[C@H]3CC[C@H](NC(=O)C4=CCCC4)CC3)CC2)c1 [Example 534, Cyclopent-1-enecarboxylic acid (4-{2-[4-(2-fluoro-5-methylphenyl)piperazin-1-yl]ethyl}cyclohexyl) amide] | 174 °C
Cc1ccc(N2CCN(CC[C@H]3CC[C@H](NC(=O)C4=CCCC4)CC3)CC2)cc1F [Example 537, Cyclopent-1-enecarboxylic acid (4-{2-[4-(3-fluoro-4-methylphenyl)piperazin-1-yl]ethyl}cyclohexyl) amide] | 220 °C
CCOCC(=O)N[C@H]1CC[C@H](CCN2CCN(c3ccc(C)c(F)c3)CC2)CC1 [Example 539, 2-Ethoxy-N-(4-{2-[4-(3-fluoro-4-methylphenyl)piperazin-1-yl]ethyl}cyclohexyl)acetamide] | 124 °C
COCC(=O)N[C@H]1CC[C@H](CCN2CCN(c3cc(F)c(F)c(F)c3)CC2)CC1 [Example 542, 2-Methoxy-N-(4-{2-[4-(3,4,5-trifluorophenyl)piperazin-1-yl]ethyl}cyclohexyl)acetamide] | 153 °C
O=C(N[C@H]1CC[C@H](CCN2CCN(c3ccc(F)c(F)c3F)CC2)CC1)C1=CCCC1 [Example 543] | 213 °C
COCCCC(=O)N[C@H]1CC[C@H](CCN2CCN(c3cccc(Cl)c3C)CC2)CC1 [Example 547, N-(4-{2-[4-(3-Chloro-2-methylphenyl)piperazin-1-yl]ethyl}cyclohexyl)-4-methoxybutanamide] | 188 °C
N#CCC(=O)N[C@H]1CC[C@H](CCN2CCN(c3ccc(F)c(Cl)c3F)CC2)CC1 [Example 551, N-(4-{2-[4-(3-Chloro-2,4-difluorophenyl)piperazin-1-yl]ethyl}cyclohexyl)-2-cyanoacetamide] | 198 °C

Results, then the molecule that gave them:

melting point | SMILES
170 °C | N#CCCCC(=O)N[C@H]1CC[C@H](CCN2CCN(c3ccc4c(c3)CCCC4)CC2)CC1 [Example 510, 4-Cyano-N-(4-{2-[4-(5,6,7,8-tetrahydronaphthalen-2-yl)piperazin-1-yl]ethyl}cyclohexyl)butanamide]
180 °C | N#Cc1cccc(N2CCN(CC[C@H]3CC[C@H](NC(=O)CC(F)(F)F)CC3)CC2)c1 [Example 511, N-(4-{2-[4-(3-Cyanophenyl)piperazin-1-yl]ethyl}cyclohexyl)-3,3,3-trifluoropropanamide]
168 °C | COCCCC(=O)N[C@H]1CC[C@H](CCN2CCN(c3cccc(C#N)c3)CC2)CC1 [Example 513, N-(4-{2-[4-(3-Cyanophenyl)-piperazin-1-yl]ethyl}cyclohexyl)-4-methoxybutanamide]
199 °C | N#CCCCC(=O)N[C@H]1CC[C@H](CCN2CCN(c3ccc(Cl)c(Cl)c3F)CC2)CC1 [Example 520, 4-Cyano-N-(4-{2-[4-(3,4-dichloro-2-fluorophenyl)piperazin-1-yl]ethyl}cyclohexyl)butanamide]
175 °C | N#CCCCC(=O)N[C@H]1CC[C@H](CCN2CCN(c3cccc(F)c3C#N)CC2)CC1 [Example 522, 4-Cyano-N-(4-{2-[4-(2-cyano-3-fluorophenyl)piperazin-1-yl]ethyl}cyclohexyl)butanamide]
165 °C | N#Cc1cccc(N2CCN(CC[C@H]3CC[C@H](NC(=O)C4=COCC4)CC3)CC2)c1 [Example 524, 4,5-Dihydrofuran-3-carboxylic acid (4-{2-[4-(3-cyanophenyl)piperazin-1-yl]ethyl}cyclohexyl) amide]
192 °C | N#CCCCC(=O)N[C@H]1CC[C@H](CCN2CCN(c3cccc(-c4ncco4)c3)CC2)CC1 [Example 526, 4-Cyano-N-(4-{2-[4-(3-oxazol-2-ylphenyl)piperazin-1-yl]ethyl}cyclohexyl)butanamide]
152 °C | N#CCCCC(=O)N[C@H]1CC[C@H](CCN2CCN(c3cc(Cl)cc(C(F)(F)F)c3)CC2)CC1 [Example 529, N-(4-{2-[4-(3-Chloro-5-trifluoromethylphenyl)piperazin-1-yl]ethyl}cyclohexyl)-4-cyanobutanamide]
185 °C | N#CCC(=O)N[C@H]1CC[C@H](CCN2CCN(c3cccc(-c4ncco4)c3)CC2)CC1 [Example 530, 2-Cyano-N-(4-{2-[4-(3-oxazol-2-ylphenyl)piperazin-1-yl]ethyl}cyclohexyl)acetamide]
202 °C | O=C(N[C@H]1CC[C@H](CCN2CCN(c3cccc(-c4ncco4)c3)CC2)CC1)C1=COCC1 [Example 532, 4,5-Dihydrofuran-3-carboxylic acid(4-{2-[4-(3-oxazol-2-ylphenyl)piperazin-1-yl]ethyl}cyclohexyl) amide]
121 °C | CCOc1cccc(N2CCN(CC[C@H]3CC[C@H](NC(=O)CCCC#N)CC3)CC2)c1 [Example 535, 4-Cyano-N-(4-{2-[4-(3-ethoxyphenyl)piperazin-1-yl]ethyl}cyclohexyl)butanamide]
180 °C | Cc1ccc(N2CCN(CC[C@H]3CC[C@H](NC(=O)CCCC#N)CC3)CC2)cc1F [Example 538, 4-Cyano-N-(4-{2-[4-(3-fluoro-4-methylphenyl)piperazin-1-yl]ethyl}cyclohexyl)butanamide]
151 °C | CCC(O)c1cccc(N2CCN(CC[C@H]3CC[C@H](NC(=O)CCCC#N)CC3)CC2)c1 (stereo partly shown) [Example 540, 4-cyano-N-[4-(2-{4-[3-(1-hydroxypropyl)phenyl]piperazin-1-yl}ethyl)cyclohexyl]butanamide]
207 °C | N#CCCCC(=O)N[C@H]1CC[C@H](CCN2CCN(c3ccc(C(F)(F)F)cc3)CC2)CC1 [Example 544, 4-Cyano-N-(4-{2-[4-(4-trifluoromethylphenyl)piperazin-1-yl]ethyl}cyclohexyl)butanamide]
